Test system: HBV
Experiment: HBV inhibition assay in HepAD38 cells (extracellular HBV DNA by direct qPCR)
Type: cell-based
Conditions: Hepatitis B virus, 8-point dose-response curve, 96 hours, read-out: HBV inh EC50
Description: HepAD38 cell line (Ladner et al., Antimicrob Agents Chemother, 1997, 41, 1715-20) was used for HBV inhibition assays. HepAD38 is a subclone, derived from Hepatoblastoma cell line HepG2 (ATCC® Number: HB-8065™), that expresses HBV genome under the control of a tetracycline-responsive promoter in a TET-OFF system: addition of tetracycline suppresses HBV replication, while its removal switches on the process allowing HBV viral particles release in the cell supernatant. HepAD38 cell line is maintained in DMEM/F12, supplemented with 10% of fetal bovine serum, 1% of glutamine, 1% of penicillin/streptomycin, 0.4 mg/ml G418 and 0,3 ug/ml tetracycline. For the HBV inhibition assay, doxycycline-free medium is used in order to allow virion production.
HBV inhibition activity in vitro was performed in 96 multiwell plates. During the initial (primary) screening compounds were first tested in triplicates at concentrations of 0.1µM, 0.5µM amd 1µM. For selected compounds, an 8-point dose-response curve can be obtained using 1:2 serial dilutions (starting from 2.5 µM, 1.25µM or 0.4 µM, depending on the degree of inhibition observed during the primary screening). From the dose-response curves, half maximal effective concentration (EC50) can be calculated (see also below).
In more detail, compounds - typically dissolved in DMSO stock solutions - are diluted to 2x the final desired concentration in 100 µl of the above medium (without doxycycline) and plated in three replicates in the 96-well plates.
Simultaneously, HepAD38 cells - extensively pre-washed in tetracycline-free medium in order to induce HBV production - are suspended at 2*10^4 cells in 100 µl of tetracycline-free medium and added to each well of the plate, to yield a final assay volume of 200 µl DMSO - used for stock solutions and compounds dilutions - which is always present in the assays at a final concentration of 0.5%.
Plates are then incubated 96 hours at 37°C and then subjected to cell viability assay in order to define compounds cytotoxicity and to extracellular HBV quantification in order to evaluate antiviral activity of compounds. Cytotoxicity is assessed by a commercial fluorescence assay that measures the metabolic activity of cells, directly related to cell viability (Cell Titer Blue, Promega). Anti-HBV activity was evaluated by quantification of extracellular HBV DNA with direct qPCR. In particular, supernatant was collected and centrifuged for cell debris clarification, viral DNA was extracted from virions by addition of lysis buffer (1 mM 1,4-dithiothreitol, 0.2% sodium dodecyl sulphate) and incubated at 95°C for 10 min. Samples were then diluted 1:40 and real time PCR amplification was performed with SYBR green assay (Power SYBR™ Green PCR Master Mix-Thermo Fisher Scientific) and specific HBV primer (HBV-DF:5'-[…]-3' (SEQ ID No. 1), HBV-DR:5'-[…]-3' (SEQ ID No. 2)).
All HBV inhibition or antiviral activity data are typically reported in percent (%) relative to a non-treated reference sample. Excel and Graphpad Prism programs are typically used for data elaboration and EC50 calculation.

SMILES	EC50
O=C(Nc1cc(F)c(F)c(F)c1)c1ccc2c(c1)S(=O)(=O)N[C@]1(N2)C(=O)Nc2ccccc21 (single isomer, unassigned) [Example E129]	> 1 µM
O=C(Nc1cc(F)c(F)c(F)c1)c1ccc2c(c1)S(=O)(=O)N[C@@]1(N2)C(=O)Nc2ccccc21 (single isomer, unassigned) [Example E130]	< 1 µM
O=C(Nc1cc(F)c(F)c(F)c1)c1cc2c(cc1Cl)NCNS2(=O)=O [Example E7, 6-chloro-N-(3,4,5-trifluorophenyl)-3,4-dihydro-2H-benzo[e][1,2,4]thiadiazine-7-carboxamide 1,1-dioxide]	< 1 µM
CC1Nc2cc(Cl)c(C(=O)Nc3cc(F)c(F)c(F)c3)cc2S(=O)(=O)N1 (stereo not shown) [Example E10, 6-chloro-3-methyl-N-(3,4,5-trifluorophenyl)-3,4-dihydro-2H-benzo[e][1,2,4]thiadiazine-7-carboxamide 1,1-dioxide]	< 1 µM
CC1Nc2ccc(C(=O)Nc3cc(F)c(F)c(F)c3)cc2S(=O)(=O)N1 (stereo not shown) [Example E21, 3-methyl-N-(3,4,5-trifluorophenyl)-3,4-dihydro-2H-benzo[e][1,2,4]thiadiazine-7-carboxamide 1,1-dioxide]	< 1 µM

Same assay, conditions: Hepatitis B virus, compound at 0.5 µM, 96 hours, relative to non-treated reference, read-out: Anti HBV Activity (conc µM)

SMILES	inhibition at 0.5 µM
O=C(Nc1cc(F)c(F)c(F)c1)c1ccc2c(c1)S(=O)(=O)NC1(N2)C(=O)Nc2ccccc21 (racemic) [Example E56, 2'-oxo-N-(3,4,5-trifluorophenyl)-2H,4H-spiro[benzo[e][1,2,4]thiadiazine-3,3'-indoline]-7-carboxamide 1,1-dioxide]	> 50%
[2H]C1([2H])Nc2ccc(C(=O)Nc3cc(F)c(F)c(F)c3)cc2S(=O)(=O)N1 [Example E2, N-(3,4,5-trifluorophenyl)-3,4-dihydro-2H-benzo[e][1,2,4]thiadiazine-3,3-d2-7-carboxamide 1,1-dioxide]	> 50%
O=C(Nc1cc(F)c(F)c(F)c1)c1ccc2c(c1)S(=O)(=O)NCN2O [Example E4, 4-hydroxy-N-(3,4,5-trifluorophenyl)-3,4-dihydro-2H-benzo[e][1,2,4]thiadiazine-7-carboxamide 1,1-dioxide]	< 50%
O=C(Nc1cc(F)c(F)c(F)c1)c1ccc2c(c1)S(=O)(=O)N(O)CN2 [Example E5, 2-hydroxy-N-(3,4,5-trifluorophenyl)-3,4-dihydro-2H-benzo[e][1,2,4]thiadiazine-7-carboxamide 1,1-dioxide]	< 50%
Cc1cc2c(cc1C(=O)Nc1cc(F)c(F)c(F)c1)S(=O)(=O)NCN2 [Example E9, 6-methyl-N-(3,4,5-trifluorophenyl)-3,4-dihydro-2H-benzo[e][1,2,4]thiadiazine-7-carboxamide 1,1-dioxide]	> 50%
O=C(Nc1cc(F)c(F)c(F)c1)c1ccc2c(c1)S(=O)(=O)NC1(CCNCC1)N2 [Example E14, N-(3,4,5-trifluorophenyl)-2H,4H-spiro[benzo[e][1,2,4]thiadiazine-3,4'-piperidine]-7-carboxamide 1,1-dioxide]	> 50%
CN1C(C(F)(F)F)Nc2ccc(C(=O)Nc3cc(F)c(F)c(F)c3)cc2S1(=O)=O (stereo not shown) [Example E18, 2-methyl-3-(trifluoromethyl)-N-(3,4,5-trifluorophenyl)-3,4-dihydro-2H-benzo[e][1,2,4]thiadiazine-7-carboxamide1,1-dioxide]	< 50%
O=C(Nc1cc(F)c(F)c(F)c1)c1ccc2c(c1)S(=O)(=O)NC(CCO)N2 (stereo not shown) [Example E22, 3-(2-hydroxyethyl)-N-(3,4,5-trifluorophenyl)-3,4-dihydro-2H-benzo[e][1,2,4]thiadiazine-7-carboxamide 1,1-dioxide]	> 50%
C[C@H](O)C1Nc2ccc(C(=O)Nc3cc(F)c(F)c(F)c3)cc2S(=O)(=O)N1 (stereo partly drawn) [Example E23, 3-((S)-1-hydroxyethyl)-N-(3,4,5-trifluorophenyl)-3,4-dihydro-2H-benzo[e][1,2,4]thiadiazine-7-carboxamide 1,1-dioxide]	> 50%
C[C@@H](O)C1Nc2ccc(C(=O)Nc3cc(F)c(F)c(F)c3)cc2S(=O)(=O)N1 (stereo partly drawn) [Example E24, 3-((R)-1-hydroxyethyl)-N-(3,4,5-trifluorophenyl)-3,4-dihydro-2H-benzo[e][1,2,4]thiadiazine-7-carboxamide 1,1-dioxide]	> 50%
C[C@H](O)C1=NS(=O)(=O)c2cc(C(=O)Nc3cc(F)c(F)c(F)c3)ccc2N1 [Example E25, (S)-3-(1-hydroxyethyl)-N-(3,4,5-trifluorophenyl)-4H-benzo[e][1,2,4]thiadiazine-7-carboxamide1,1-dioxide]	< 50%

Same assay, conditions: Hepatitis B virus, compound at 1 µM, 96 hours, relative to non-treated reference, read-out: Anti HBV Activity (conc µM)

SMILES	inhibition at 1 µM
O=C(Nc1cc(F)c(F)c(F)c1)c1ccc2c(c1)S(=O)(=O)NCN2 [Example E1, N-(3,4,5-trifluorophenyl)-3,4-dihydro-2H-benzo[e][1,2,4]thiadiazine-7-carboxamide 1,1-dioxide]	> 50%
CN1CNS(=O)(=O)c2cc(C(=O)Nc3cc(F)c(F)c(F)c3)ccc21 [Example E3, 4-methyl-N-(3,4,5-trifluorophenyl)-3,4-dihydro-2H-benzo[e][1,2,4]thiadiazine-7-carboxamide 1,1-dioxide]	< 50%
CN1CNc2ccc(C(=O)Nc3cc(F)c(F)c(F)c3)cc2S1(=O)=O [Example E6, 2-methyl-N-(3,4,5-trifluorophenyl)-3,4-dihydro-2H-benzo[e][1,2,4]thiadiazine-7-carboxamide 1,1-dioxide]	< 50%
O=C(Nc1cc(F)c(F)c(F)c1)c1cc2c(cc1Br)NCNS2(=O)=O [Example E8, 6-bromo-N-(3,4,5-trifluorophenyl)-3,4-dihydro-2H-benzo[e][1,2,4]thiadiazine-7-carboxamide 1,1-dioxide]	> 50%
O=C(Nc1ccc(F)c(F)c1)c1ccc2c(c1)S(=O)(=O)NC1(COC1)N2 [Example E11, N-(3,4-difluorophenyl)-2H,4H-spiro[benzo[e][1,2,4]thiadiazine-3,3'-oxetane]-7-carboxamide 1,1-dioxide]	< 50%
O=C(Nc1ccc(F)c(F)c1)c1ccc2c(c1)S(=O)(=O)NC1(CCC1)N2 [Example E12, N-(3,4-difluorophenyl)-2H,4H-spiro[benzo[e] [1,2,4]thiadiazine-3,1'-cyclobutane]-7-carboxamide 1,1-dioxide]	> 50%
O=C(Nc1cc(F)c(F)c(F)c1)c1ccc2c(c1)S(=O)(=O)NC1(CCOCC1)N2 [Example E13, N-(3,4,5-trifluorophenyl)-2',3',5',6'-tetrahydro-2H,4H-spiro[benzo[e] [1,2,4]thiadiazine-3,4'-pyran]-7-carboxamide1,1-dioxide]	> 50%
O=C(Nc1cc(F)c(F)c(F)c1)c1ccc2c(c1)S(=O)(=O)NC(C(F)(F)F)N2 (stereo not shown) [Example E15, 3-(trifluoromethyl)-N-(3,4,5-trifluorophenyl)-3,4-dihydro-2H-benzo[e][1,2,4]thiadiazine-7-carboxamide1,1-dioxide]	< 50%
CC(C)OCCC1Nc2ccc(C(=O)Nc3cc(F)c(F)c(F)c3)cc2S(=O)(=O)N1 (stereo not shown) [Example E16, 3-(2-isopropoxyethyl)-N-(3,4,5-trifluorophenyl)-3,4-dihydro-2H-benzo[e][1,2,4]thiadiazine-7-carboxamide 1,1-dioxide]	> 50%
O=C(Nc1cc(F)c(F)c(F)c1)c1ccc2c(c1)S(=O)(=O)NC(C(F)F)N2 (stereo not shown) [Example E17, 3-(difluoromethyl)-N-(3,4,5-trifluorophenyl)-3,4-dihydro-2H-benzo[e][1,2,4]thiadiazine-7-carboxamide1,1-dioxide]	> 50%
O=C(Nc1ccc(F)c(F)c1)c1ccc2c(c1)S(=O)(=O)NCN2 [Example E19, N-(3,4-difluorophenyl)-3,4-dihydro-2H-benzo[e][1,2,4]thiadiazine-7-carboxamide 1,1-dioxide]	> 50%
CC1Nc2ccc(C(=O)Nc3ccc(F)c(F)c3)cc2S(=O)(=O)N1 (stereo not shown) [Example E20, N-(3,4-difluorophenyl)-3-methyl-3,4-dihydro-2H-benzo[e][1,2,4]thiadiazine-7-carboxamide 1,1-dioxide]	> 50%

From EP3597653A1, “CYCLIC INHIBITORS OF HEPATITIS B VIRUS” (IRBM S.P.A., priority 2018, dated 2020)
